Laboratory results published in US12306176B2, “Microfluidic bi-directional migration assay” (Ohio State Innovation Foundation, priority 2017, dated 2025).

Columns and labels:
MDA-MB-231 cells = assay: Modified transwell migration assay; assay type: cell-based, human; settings: EGF 100 ng/mL in bottom chamber, 8 hours
Text: In addition to the MBDM assay, the modified transwell migration assay (Ahirwar D K, et al. (2015) Sci Rep 5:11005.) was used to determine the effects of standalone iEF treatment on number of cells migrated to complement the speed and persistence data obtained from the MBDM assay. iEF treatment alone had no significant effect (neither stimulatory nor inhibitory) on the total number of MDA-MB-231 cells that spontaneously migrated across the transwell membrane (˜10 μm thick) compared to the untreated control (FIG. 8). These outcomes occurred for both anti-parallel and parallel directions of iEF application.
Transwell permeable supports that have 6.5 mm diameter inserts of polycarbonate membrane with 8 μm diameter pore size (Corning, CLS3422) were used in the experiments reported here. […] Cell migration numbers were then quantified using a custom MATLAB script as described in Image Acquisition and Processing. […]
Images from experiments with the transwell migration assays were taken using a stereo microscope (Leica Microsystems Inc.) after fixation and staining of the cells using the HEMA 3 solution kit (Fisher Scientific). […] The images were then imported into MATLAB and analyzed using a custom code (MATLAB script). […] The average area of a cell was determined from the mean of manual measurements of approximately 20 isolated cells for each case. […]

[1] = system: succinate dehydrogenase (SDH); assay: SDH activity colorimetric kinetic assay; assay type: cell-based, human; settings: EGF 25 ng/mL, 12 hours; not significant
Text: To investigate whether iEF has an effect on metabolic function of MDA-MB-231 cells, the activity levels of lactate dehydrogenase (LDH) and succinate dehydrogenase (SDH) were examined. LDH is an enzyme that catalyzes the interconversion of pyruvate to lactate as part of the glycolysis chain (Pelicano H, et al. (2006) Oncogene 25 (34):4633). SDH is an enzyme within Complex II of the mitochondria that is utilized in both the tricarboxylic acid (TCA) cycle as well as oxidative phosphorylation (OXPHOS) (Gottlieb E & Tomlinson IP (2005) Nat Rev Cancer. 5 (11):857). As part of the TCA cycle, SDH catalyzes the oxidation of succinate to fumarate, and as part of OXPHOS, SDH transfers two electrons from flavin adenine dinucleotide into the electron transport chain (Gottlieb E & Tomlinson IP (2005) Nat Rev Cancer. 5 (11):857). To determine whether LDH or SDH activity levels were changing, colorimetric kinetic assays were employed. […]
1×10^6 cells/well were plated in 6 well plates in growth media for 12 hours followed by migration media (0.1% FBS) for an additional 12 hours. […] The LDH activity assay kit (Sigma-Aldrich, MAK066) and the SDH activity colorimetric assay kit (Sigma-Aldrich, MAK197) were used to quantify LDH and SDH activity respectively. […] For quantification of LDH and SDH, the protocols provided by the supplier were followed. […]

## epidermal growth factor [EGF]
MDA-MB-231 cells
  transmigration compared to untreated controls: significantly promoted
[1]
  increase of SDH activity: 23%
